From article PMC8958510 (Journal of Medicinal Chemistry, 2022)
Converted amounts (≈) assume the structure as drawn. Where two headings read alike, the source gives them in different places.

Columns and labels:
[1] = PAMPA-BBB assay for brain permeability; settings: for Papp: pig, PAMPA; for BBB permeation class: PAMPA-BBB prediction
Procedure: PAMPA-BBB assay for brain permeability. The brain permeability (Pe) of the target
compounds was assessed by an in vitro parallel artificial membrane permeability assay for
blood‒brain barrier penetration (PAMPA-BBB assay),12 which uses a lipid extract of porcine
brain membrane as a BBB model. The assay was validated by comparing experimental and
reported Pe values of a set of fourteen commercial drugs (Table S2 of the Supporting
On the basis of this equation and the limits established by Di et al. for BBB
independent experiments, each performed in triplicate, were carried out for each compound.

[2] = target: PAS of Electrophorus electricus AChE (EeAChE) (Electrophorus electricus, UniProt O42275); settings: read-out: KD of propidium for PAS; value assumed for the calculation; ref 11 (Supporting Information); cited from earlier work
Sequence of PAS of Electrophorus electricus AChE (EeAChE) (O42275 24-633): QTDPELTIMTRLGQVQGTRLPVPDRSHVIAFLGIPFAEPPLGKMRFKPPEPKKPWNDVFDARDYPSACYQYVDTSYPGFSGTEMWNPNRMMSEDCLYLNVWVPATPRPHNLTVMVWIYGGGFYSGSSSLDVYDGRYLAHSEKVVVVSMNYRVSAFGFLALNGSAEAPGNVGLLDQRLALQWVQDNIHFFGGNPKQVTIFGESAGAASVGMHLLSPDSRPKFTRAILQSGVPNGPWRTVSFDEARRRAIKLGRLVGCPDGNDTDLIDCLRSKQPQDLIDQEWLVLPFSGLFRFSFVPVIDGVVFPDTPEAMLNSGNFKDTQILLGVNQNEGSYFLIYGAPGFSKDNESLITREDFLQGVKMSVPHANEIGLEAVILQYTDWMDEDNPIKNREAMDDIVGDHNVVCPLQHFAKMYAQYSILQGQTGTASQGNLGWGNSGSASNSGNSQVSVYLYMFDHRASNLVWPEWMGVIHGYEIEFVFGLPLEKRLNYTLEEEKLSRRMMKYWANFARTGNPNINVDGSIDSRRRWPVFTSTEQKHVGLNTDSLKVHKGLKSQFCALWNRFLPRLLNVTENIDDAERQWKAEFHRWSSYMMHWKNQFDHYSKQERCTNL

human serum BChE = target: T1, human serum BChE (Homo sapiens, UniProt P06276); type: biochemical; settings: read-out: hBChE IC50
T1 construct: human serum BChE (Sigma-Aldrich, Milan, Italy) was assessed by Ellman’s method; purchased Sigma-Aldrich, Milan, Italy; host or cells: human serum
T1 sequence (P06276 29-602): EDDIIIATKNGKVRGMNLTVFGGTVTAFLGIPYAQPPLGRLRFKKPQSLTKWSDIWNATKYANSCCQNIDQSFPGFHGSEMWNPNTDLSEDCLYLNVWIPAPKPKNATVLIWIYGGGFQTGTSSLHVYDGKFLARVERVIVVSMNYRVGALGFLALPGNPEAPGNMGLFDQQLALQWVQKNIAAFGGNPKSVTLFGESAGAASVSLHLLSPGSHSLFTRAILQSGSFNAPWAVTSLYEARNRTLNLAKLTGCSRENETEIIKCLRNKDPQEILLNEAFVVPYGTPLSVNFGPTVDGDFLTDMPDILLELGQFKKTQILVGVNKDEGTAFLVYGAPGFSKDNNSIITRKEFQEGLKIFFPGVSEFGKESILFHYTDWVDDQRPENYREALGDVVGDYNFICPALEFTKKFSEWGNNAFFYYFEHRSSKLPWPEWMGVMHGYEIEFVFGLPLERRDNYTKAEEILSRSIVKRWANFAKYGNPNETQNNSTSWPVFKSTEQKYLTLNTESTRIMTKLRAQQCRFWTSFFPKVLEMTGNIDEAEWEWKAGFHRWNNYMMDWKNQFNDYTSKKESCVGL
Procedure: (§1) Human and mouse acetylcholinesterase and human butyrylcholinesterase inhibition
(§2) assay. The inhibitory activity of the target compounds toward recombinant human AChE
(§3) (Sigma-Aldrich, Milan, Italy), recombinant mouse AChE (Bio-Techne, Milan, Italy) and
(§4) human serum BChE (Sigma-Aldrich, Milan, Italy) was assessed by Ellman’s method,8 using
(§5) Stock solutions of the AChEs were prepared by
(§6) dissolving enzyme lyophilized powder (hAChE) or diluting the enzyme commercial solution
(§7) (mAChE) in 0.1 M potassium phosphate (pH 8.0) containing 0.1% Triton X-100, whereas the
(§8) stock solution of hBChE was prepared in 0.1% aq. gelatin and the stock solutions of the
(§9) compounds to be tested were made in MeOH (2-4 mM). The assay solution consisted of 0.02
(§10) unit mL‒1 of the enzyme, 340 M 5,5’-dithiobis(2-nitrobenzoic acid), and 550 M of the
(§11) substrate acetylthiocholine iodide (for AChE assay) or butyrylthiocholine iodide (for BChE
(§12) assay) in 0.1 M potassium phosphate (pH 8.0). Blank solutions containing all components
(§13) except the enzymes were prepared to account for the non-enzymatic hydrolysis of the
(§14) Prior the addition of the substrate, the assay solutions were incubated at 37 °C for 20 min.
(§15) After the addition of the substrate, cuvettes were rapidly transferred into a Jasco V-530
(§16) double beam spectrophotometer equipped with thermostated cuvette holders (37 °C), in order
(§17) for 240 s. For each tested compound, five increasing concentrations were assayed in order to
(§18) achieve inhibition percentages of 20‒80%. Each concentration was assayed in triplicate. IC50
(§19) values were calculated from the inhibition plot (% inhibition vs log[inhibitor]) and are
(§20) expressed as mean ± SEM. Each IC50 value is the average of at least two experiments, each

recombinant mouse AChE = target: T2, recombinant mouse AChE (Mus musculus, UniProt P21836); assay: Mouse acetylcholinesterase inhibition, Ellman's method; type: biochemical; settings: recombinant mouse AChE; mean ± SEM; read-out: mAChE IC50
T2 construct: purchased Bio-Techne, Milan, Italy
T2 sequence (P21836 32-614): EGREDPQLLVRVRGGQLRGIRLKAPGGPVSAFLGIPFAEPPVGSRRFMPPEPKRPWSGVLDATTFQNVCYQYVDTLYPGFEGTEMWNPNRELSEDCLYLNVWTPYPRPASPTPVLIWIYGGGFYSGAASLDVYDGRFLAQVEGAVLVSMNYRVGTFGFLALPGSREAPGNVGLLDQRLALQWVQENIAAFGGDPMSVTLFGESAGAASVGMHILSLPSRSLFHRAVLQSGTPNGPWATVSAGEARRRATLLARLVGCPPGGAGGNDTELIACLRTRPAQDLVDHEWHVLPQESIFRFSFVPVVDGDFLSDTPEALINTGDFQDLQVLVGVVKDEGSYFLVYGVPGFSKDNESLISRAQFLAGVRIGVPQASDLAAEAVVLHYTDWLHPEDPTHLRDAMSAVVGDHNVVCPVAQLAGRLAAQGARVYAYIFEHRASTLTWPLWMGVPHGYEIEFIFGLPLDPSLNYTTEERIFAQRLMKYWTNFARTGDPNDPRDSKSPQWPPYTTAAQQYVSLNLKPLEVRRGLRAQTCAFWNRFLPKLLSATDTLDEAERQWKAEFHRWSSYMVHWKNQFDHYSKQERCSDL
Procedure: as §1, §2, §3, §4, §5, §6, §7, §8, §9, §10, §11, §12, §13, §14, §15, §16, §17, §18, §19, §20

recombinant mouse sEH = target: T3, recombinant mouse sEH (Mus musculus, UniProt P34914); settings: read-out: msEH IC50, average of three replicates
T3 sequence (P34914 1-554): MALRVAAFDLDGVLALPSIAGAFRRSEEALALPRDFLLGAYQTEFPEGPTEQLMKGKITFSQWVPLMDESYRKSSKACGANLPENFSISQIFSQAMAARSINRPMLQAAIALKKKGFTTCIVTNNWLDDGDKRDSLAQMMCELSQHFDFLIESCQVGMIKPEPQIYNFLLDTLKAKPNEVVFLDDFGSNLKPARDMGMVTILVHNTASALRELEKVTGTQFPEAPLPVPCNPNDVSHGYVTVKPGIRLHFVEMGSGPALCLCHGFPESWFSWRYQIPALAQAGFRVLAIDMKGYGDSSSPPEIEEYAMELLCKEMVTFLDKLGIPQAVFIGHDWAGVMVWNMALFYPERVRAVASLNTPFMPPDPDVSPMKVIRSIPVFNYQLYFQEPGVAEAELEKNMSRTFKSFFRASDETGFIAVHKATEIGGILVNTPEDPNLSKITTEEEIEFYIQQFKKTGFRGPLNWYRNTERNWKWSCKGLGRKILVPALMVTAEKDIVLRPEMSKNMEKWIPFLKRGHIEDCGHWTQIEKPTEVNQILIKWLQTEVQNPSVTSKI
Procedure: (§21) Human and mouse soluble epoxide hydrolase inhibition assay. The inhibitory activity of
(§22) the target compounds toward human and mouse sEH was determined by a fluorescence-based
(§23) assay, using purified recombinant human or mouse sEH proteins and CMNPC as a fluorescent
(§24) substrate.6 The enzymes were incubated at 30 °C with the inhibitors ([I]final = 0.4-100,000
(§25) nM) for 5 min in 100 mM sodium phosphate buffer (200 µL, pH 7.4) containing 0.1 mg mL‒1
(§26) of BSA and 1% of DMSO. The substrate (CMNPC) was then added ([S]final = 5 µM). Activity
(§27) was assessed by measuring the appearance of the fluorescent 6-methoxynaphthaldehyde
(§28) (Molecular Devices). Results were obtained by regression analysis from a linear region of the
(§29) curve and are given as IC50 values, i.e., the concentration of the compound that reduces the
(§30) sEH activity by 50%. All measurements were performed in triplicate and the mean is

recombinant human sEH = target: T4, recombinant human sEH (Homo sapiens, UniProt P34913); assay: Human soluble epoxide hydrolase inhibition, fluorescence-based assay (CMNPC substrate); type: biochemical; settings: for IC50: recombinant human sEH, average of three replicates, read-out: hsEH IC50; for higher hsEH potency relative to TPPU: ratio of IC50s vs TPPU
T4 sequence (P34913 1-555): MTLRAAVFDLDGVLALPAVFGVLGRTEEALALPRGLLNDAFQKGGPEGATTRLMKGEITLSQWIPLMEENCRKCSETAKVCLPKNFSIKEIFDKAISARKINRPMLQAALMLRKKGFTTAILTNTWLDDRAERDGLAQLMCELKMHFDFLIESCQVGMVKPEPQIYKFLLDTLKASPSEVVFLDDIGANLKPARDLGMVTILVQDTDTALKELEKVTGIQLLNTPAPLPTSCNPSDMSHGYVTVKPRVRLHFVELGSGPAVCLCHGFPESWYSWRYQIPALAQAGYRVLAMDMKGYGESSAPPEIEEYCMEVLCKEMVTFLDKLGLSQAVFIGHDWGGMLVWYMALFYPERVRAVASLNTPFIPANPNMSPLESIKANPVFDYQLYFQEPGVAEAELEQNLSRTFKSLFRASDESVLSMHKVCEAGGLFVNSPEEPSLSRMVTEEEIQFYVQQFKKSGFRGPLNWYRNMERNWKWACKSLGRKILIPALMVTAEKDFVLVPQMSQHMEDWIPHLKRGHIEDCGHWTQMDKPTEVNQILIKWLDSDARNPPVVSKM
Procedure: as §21, §22, §23, §24, §25, §26, §27, §28, §29, §30

SH-SY5Y cells = assay: Cytotoxicity in SH-SY5Y cells, propidium iodide stain; type: cell-based, human; settings: for toxicity to SH-SY5Y cells LD50: propidium iodide staining after 24 h of incubation, mean ± SD; for LD50 (SH-SY5Y): supplementary CSV
Procedure: Cytotoxicity in SH-SY5Y cells. The cytotoxicity of the target compounds was evaluated in
Minimum Essential Medium / Ham’s-F12 (1:1, v/v) medium (Biowest), supplemented with
non-essential amino acids, 10% fetal bovine serum, 1 mM glutamine and 50 µg mL‒1
gentamycin (all reagents from Gibco, Thermo Fisher Scientific). For the experiments, cells
were seeded at 3 × 10^5 cells mL‒1 (100 µL per well) in 96-well plates (Nunc). After 24 h, the
test compounds were added concentrated from stock solutions in DMSO and culture medium
to triplicate wells to obtain the final different concentrations up to 100 µM in 0.1% DMSO.
Compounds were incubated for further 24 h. At termination, cytotoxicity was analyzed by the
propidium iodide (PI) fluorescence stain assay. All compounds were tested in three
independent experiments using different cell passages. The PI assay measures cell death. PI
enters into the cells with damaged membranes and greatly increases the fluorescence upon
binding to DNA. PI reagent (Molecular Probes) at the final concentration of 7.5 µg mL‒1 was
added to the cells and incubated for 1 h. The resulting fluorescence was measured by a Flx-
death induced by the compounds was calculated from to the fluorescence of treated cells (Ft)
relative to that of control cells (Fmin) and cells incubated with Triton X100 (Fmax) as the 0%
and 100% cell death, respectively [% = ((Ft-Fmin)/(Fmax-Fmin)) × 100]. All compounds
were tested in three independent experiments using different cell passages. LC50 values were
calculated for each experiment and the results are expressed as mean ± SD.

[3] = Kinetic aqueous solubility screen (light scattering); settings: 1% DMSO / 99% PBS
Procedure: Aqueous solubility screen. The kinetic aqueous solubility of the target compounds was
(§31) determined at the Innopharma Drug Screening and Pharmacogenomics Platform (Santiago de
Compostela, Spain). Ten mM stock solutions of the tested compounds were serially diluted,
NEPHELOstar Plus reader (BMG LABTECH). The results were adjusted to a segmented
linear regression to obtain the maximum concentration in which the compounds were soluble.

[4] = Microsomal stability, rat liver microsomes; type: in vitro ADME; settings: rat, liver microsomes (pooled), pH 7.4; for remaining at 1 h, 0.05 µM: after 1 h of incubation at 37 °C, read-out: % remaining compound, rat microsomes
Procedure: (§32) Microsomal stability screen. The microsomal stability of the target compounds was
as §31
(§33) Compostela, Spain). The human, rat and mice pooled microsomes, with a protein content of 20 mg mL‒1, were purchased from Tebu-Xenotech. The compounds were incubated in a 96-well microplate at 37 °C with the microsomes in 50 mM phosphate buffer (pH = 7.4) containing as cofactors 30 mM MgCl2, 10 mM NADP, 100 mM glucose-6-phosphate and 40
(§34) Samples (75 µL) were taken from each well at 0, 10, 20, 40 and 60 min and transferred to a microplate. 4 °C Acetonitrile (75 µL) and internal standard (rolipram) were then added for inactivating the microsomes, and water with 0.5% formic acid (30 µL) was subsequently added for improving the chromatographic conditions, keeping the mixtures at 4 °C. The plate was centrifuged at 46,000 g for 30 min at 15 °C and supernatants were taken and analyzed in a UPLC-MS/MS system (UPLC QSM Waters Acquity) using reverse phase Acquity UPLC® HSST3 1.7 μm (2.1 mm × 50 mm, Waters) as the stationary phase, 0.1% formic acid in water (A) / 0.1% formic acid in acetonitrile (B) as the mobile phase, a flow of 0.8 mL min‒1, and the
(§35) The metabolic stability of the compounds was calculated from the logarithm of the remaining compound at each of the time points studied.

[5] = Microsomal stability, mouse liver microsomes; type: in vitro ADME; settings: mouse, liver microsomes (pooled), pH 7.4; for microsomal CLint at 1 h, 0.05 µM / half-life at 1 h, 0.05 µM: 37 °C; for half-life at 1 h, 0.05 µM: read-out: t1/2, mouse microsomes; for remaining at 1 h, 0.05 µM: after 1 h of incubation at 37 °C, read-out: % remaining compound, mouse microsomes
Procedure: as §32, §31, §33, §34, §35

[6] = Microsomal stability, human liver microsomes; type: in vitro ADME; settings: human, liver microsomes (pooled), pH 7.4; for remaining at 1 h: after 1 h of incubation at 37 °C, read-out: % remaining compound, human microsomes
Procedure: as §32, §31, §33, §34, §35

recombinant human AChE = target: T5, recombinant human AChE (Homo sapiens, UniProt P22303); type: biochemical; settings: for IC50: recombinant human AChE, mean ± SEM, read-out: hAChE IC50
T5 construct: purchased Sigma-Aldrich, Milan, Italy
T5 sequence (P22303 32-614): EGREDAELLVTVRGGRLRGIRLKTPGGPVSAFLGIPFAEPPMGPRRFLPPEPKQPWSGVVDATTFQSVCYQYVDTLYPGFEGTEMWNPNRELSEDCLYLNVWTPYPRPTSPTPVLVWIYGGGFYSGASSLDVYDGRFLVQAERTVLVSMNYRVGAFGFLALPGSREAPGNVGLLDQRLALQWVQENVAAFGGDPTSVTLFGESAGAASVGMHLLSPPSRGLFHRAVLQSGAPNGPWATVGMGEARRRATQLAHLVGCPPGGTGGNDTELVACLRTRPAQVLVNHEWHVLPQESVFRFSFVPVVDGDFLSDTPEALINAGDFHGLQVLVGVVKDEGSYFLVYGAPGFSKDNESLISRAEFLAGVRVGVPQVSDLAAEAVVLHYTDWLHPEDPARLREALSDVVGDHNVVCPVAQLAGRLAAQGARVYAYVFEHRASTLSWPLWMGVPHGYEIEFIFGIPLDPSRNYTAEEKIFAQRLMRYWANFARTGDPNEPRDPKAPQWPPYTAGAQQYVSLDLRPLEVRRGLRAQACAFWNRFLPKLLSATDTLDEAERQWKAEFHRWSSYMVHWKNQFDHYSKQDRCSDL
Procedure: as §1, §2, §3, §4, §5, §6, §7, §8, §9, §10, §11, §12, §13, §14, §15, §16, §17, §18, §19, §20

[7] = 37 °C, read-out: t1/2, rat microsomes
[8] = human serum BChE, mean ± SEM, n.a. = not active, % inhibition <10% at 100 μM
[9] = 37 °C, read-out: t1/2, human microsomes

| SMILES | Papp [1] | IC50 (recombinant mouse AChE) | IC50 (recombinant mouse sEH) | IC50 (recombinant human sEH) | toxicity to SH-SY5Y cells LD50 (SH-SY5Y cells) | LD50 (SH-SY5Y) (SH-SY5Y cells) | solubility at 2 h [3] | microsomal CLint at 1 h, 0.05 µM ([4]; 37 °C) | remaining at 1 h, 0.05 µM [4] | IC50 (human serum BChE; [8]) | BBB permeation class [1] | microsomal CLint at 1 h, 0.05 µM [5] | half-life at 1 h, 0.05 µM [5] | remaining at 1 h, 0.05 µM [5] | microsomal CLint at 1 h ([6]; 37 °C) | remaining at 1 h [6] | IC50 (recombinant human AChE) | also measured |
| --- | --- | --- | --- | --- | --- | --- | --- | --- | --- | --- | --- | --- | --- | --- | --- | --- | --- | --- |
| CN1C(C(=O)Nc2ccccn2)=C(O)c2ccccc2S1(=O)=O [Piroxicam, reference compound] | 2.3 ± 0.1 ×10⁻⁶ cm/s | – | – | – | – | – | – | – | – | – | – | – | – | – | – | – | – | – |
| CC[N+](C)(CC)CCC[n+]1c(-c2ccccc2)c2cc(N)ccc2c2ccc(N)cc21 [propidium, propidium iodide] | – | – | – | – | – | – | – | – | – | – | – | – | – | – | – | – | – | Kd [2]: 700 nM |
| CC1=C[C@H]2Cc3nc4cc(Cl)ccc4c(N)c3[C@@H](C1)C2 [(+)-3, (+)-huprine Y, reference compound] | – | 474 ± 22 nM | > 50000 nM | > 50000 nM | – | – | – | – | – | – | – | – | – | – | – | – | – | IC50 (human serum BChE): 170 ± 17 nM |
| CC1=C[C@@H]2Cc3nc4cc(Cl)ccc4c(N)c3[C@H](C1)C2 [(−)-3, (−)-huprine Y, reference compound] | – | 0.62 ± 0.03 nM | > 50000 nM | 41000 nM | – | – | – | – | – | – | – | – | – | – | – | – | – | IC50 (human serum BChE): 222 ± 17 nM |
| O=C(Nc1ccc(OC(F)(F)F)cc1)NC1CCN(C(=O)CCNc2c3c(nc4cc(Cl)ccc24)CCCC3)CC1 [12a, 1-{1-{3-[(6-Chloro-1,2,3,4-tetrahydroacridin-9-yl)amino]propanoyl}piperidin-4-yl}-3-[4-(trifluoromethoxy)phenyl]urea] | 9.2 ± 0.2 ×10⁻⁶ cm/s | 35.4 ± 2 nM | 12.1 nM | 0.4 nM | 92.8 ± 52.3 µM | 92.8 ± 52.3 ?M | 42.6 µM (≈ 25.1 µg/mL) | 56 µL/min/mg | 4% | 947 ± 6 nM | CNS+ (High permeation, CNS+: Pe > 5.2) | 109 µL/min/mg | 6 min | 1% | 57 µL/min/mg | 4% | 14.5 ± 0.3 nM | half-life at 0.05 µM [4, 7]: 12 min; higher hsEH potency relative to TPPU (recombinant human sEH): 9 fold; half-life [6, 9]: 12 min |
| CC1=C[C@H]2Cc3nc4cc(Cl)ccc4c(NCCCCC(=O)N4CCC(NC(=O)Nc5ccc(OC(F)(F)F)cc5)CC4)c3[C@@H](C1)C2 [(+)-15, (+)-(7R,11R)-1-{1-{5-[(3-Chloro-6,7,10,11-tetrahydro-9-methyl-7,11-methanocycloocta[b]quinolin-12-yl)amino]pentanoyl}piperidin-4-yl}-3-[4-(trifluoromethoxy)phenyl]urea] | – | 102 ± 18 nM | 14.5 nM | 3.1 nM | – | – | – | – | – | 179 ± 26 nM | – | – | – | – | – | – | 1660 ± 450 nM | – |
| Nc1c2c(nc3cc(Cl)ccc13)CCCC2 [compound 2, 6-chlorotacrine, reference compound] | – | 19.8 ± 0.7 nM | > 50000 nM | 49100 nM | – | – | – | – | – | – | – | – | – | – | – | – | – | – |
| O=C(Nc1ccc(OC(F)(F)F)cc1)NC1CCN(C(=O)CCCNc2c3c(nc4cc(Cl)ccc24)CCCC3)CC1 [12b, 1-{1-{4-[(6-Chloro-1,2,3,4-tetrahydroacridin-9-yl)amino]butanoyl}piperidin-4-yl}-3-[4-(trifluoromethoxy)phenyl]urea] | 9.1 ± 0.1 ×10⁻⁶ cm/s | 4.01 ± 0.24 nM | 15 nM | 1 nM | >100 µM | > 100 ?M | 13.7 µM (≈ 8.28 µg/mL) | 69 µL/min/mg | 2% | 416 ± 35 nM | CNS+ (High permeation, CNS+: Pe > 5.2) | 78 µL/min/mg | 9 min | 1% | 19 µL/min/mg | 34% | 2.71 ± 0.06 nM | half-life at 1 h, 0.05 µM [4, 7]: 10 min; half-life at 1 h [6, 9]: 36 min; hAChE potency relative to 6-chlorotacrine (recombinant human AChE): 5 fold |
| CC1=C[C@@H]2Cc3nc4cc(Cl)ccc4c(NCCCCC(=O)N4CCC(NC(=O)Nc5ccc(OC(F)(F)F)cc5)CC4)c3[C@H](C1)C2 [(−)-15, (−)-(7S,11S)-1-{1-{5-[(3-Chloro-6,7,10,11-tetrahydro-9-methyl-7,11-methanocycloocta[b]quinolin-12-yl)amino]pentanoyl}piperidin-4-yl}-3-[4-(trifluoromethoxy)phenyl]urea] | 9.9 ± 0.3 ×10⁻⁶ cm/s | 2.61 ± 0.16 nM | 34.3 nM | 0.4 nM | >100 µM | > 100 ?M | 5.6 µM (≈ 3.75 µg/mL) | 54 µL/min/mg | 4% | 615 ± 34 nM | CNS+ (High permeation, CNS+: Pe > 5.2) | 172 µL/min/mg | 4 min | 0.4% | 144 µL/min/mg | 1% | 1.94 ± 0.67 nM | half-life at 1 h, 0.05 µM [4, 7]: 13 min; hsEH potency relative to its enantiomer (recombinant human sEH; enantioselectivity): 8 fold; higher hsEH potency relative to TPPU (recombinant human sEH): 9 fold; half-life at 1 h [6, 9]: 5 min; hAChE potency relative to its enantiomer (recombinant human AChE; enantioselectivity): 850 fold |
